Patent US11779582B2, “Composition for preventing or treating metastatic ovarian cancer, endometrial cancer or breast cancer” (LEMONEX INC., priority 2017, dated 2023)

Columns and labels:
Format in all cases: cell-based
[1] = tested on: sphere cultured SKOV3ip1 ovarian cancer cells; assay: crystal violet cell viability, 3D sphere culture; details: for cell viability: sphere cultured SKOV3ip1, 72 hours, different concentrations, crystal violet colorimeter (FIG. 3)
Procedure: (§1) For 3D sphere culture, SKOV3ip1 cells (1×10^6) were dispensed on ultra-low adherent 6-well plate (Corning NY, USA), and then, cultured in 5% CO2 incubator using RPMI 1640 medium supplemented with 10% fetal bovine serum (Gibco, NY, USA) and 10 U/ml penicillin/streptomycin (Gibco).
In order to assess the cell viability in the sphere cultured cells, the SKOV3ip1 cells (5×10^4) were dispensed on the super-low adherent 24-well plate and cultured overnight. The cells were harvested from each well and the commercial 24-well plate was moved, followed by further incubation for 12 hours. The adhered and visualized cells were stained with 0.2% crystal violet solution for 20 minutes while gently agitating the same. The stained cells were washed with distilled water until a clean background is observed. For assessment using a colorimeter, the crystal violet dye was extracted with 1% SDS/PBS and absorbance was measured at 570 nm wavelength by EMax PLUS microplate reader (Molecular Device, USA).
(§2) The monolayer cultured or sphere cultured SKOV3ip1 cells were treated with the tyrosine kinase inhibitor and paclitaxel for 72 hours, the cell viability was determined by the crystal violet colorimeter, and results thereof are shown in FIG. 3.
Since the cell survival of the sphere cultured SKOV3ip1 cells is inhibited by BGJ398 treatment, whether such cell survival inhibition is intermediated through JAK/STAT3 signaling pathway was further examined. For this purpose, the selective JAK tyrosine kinase inhibitor AG490 was used at different concentrations of 3.125 to 50 μM in order to treat the monolayer cultured or sphere cultured SKOV3ip1 cells, and after 72 hours, whether it affects the cell viability and AKT and STAT3 activation was examined through crystal violet staining and immunostaining assay, and results thereof are shown in FIG. 7. Actin was used as a loading control group.
Under this ground, when administering BGJ398 in combination with paclitaxel typically used as the existing primary anticancer drug for ovarian cancer, whether paclitaxel resistance of the sphere cultured cells is overcome and improved was determined.

[2] = tested on: AKT and STAT3 phosphorylation in sphere cultured SKOV3ip1 cells; assay: immunostaining of AKT and STAT3 phosphorylation, sphere culture; details: for phosphorylated AKT at Ser473: sphere cultured, 5 μM BGJ398, 3 μM TAE648, 5 μM imatinib, 72 hours (FIG. 6)
Text: In order to identify whether a change in signaling pathways associated with cell survival appears or not according to 2D monolayer culture (2D MC) and 3D sphere culture (3D SC), immunostaining was implemented. More particularly, after culturing SKOV3ip1 cells (1×10^6) by 2D monolayer culture or 3D sphere culture described in section 1.1, expression of cell-signaling molecules including AKT, STAT3, p42/44 ERK and p38 MAPK was detected and activation states in the monolayer cultured cells and the sphere cultured cells were compared. The monolayer cultured or sphere cultured SKOV3ip1 cells were harvested and washed once with ice-cold 1× phosphate buffered saline, followed by dissolving the same in 100 μl ice-cold RIPA buffer (20 mM Tris-Cl, pH 8.0, 125 mM NaCl, […], 1 mM ethylene diamine tetraacetic acid, 1% Triton X-100, 0.5% sodium deoxycholate, 0.1% sodium dodecyl sulfate, 1× complete protease inhibitor cocktail (Roche, Mannheim, Germany)) on ice. After assessing the protein concentration using a Bradford Protein assay kit (Biorad, CA, USA), the same amount of proteins (30 μg) was separated by SDS-PAGE and moved to a nitrocellulose membrane, followed by immunostaining the same using a horseradish peroxide conjugated second antibody and a specific antibody. An immune activation band was detected with SuperSignal West Pico Chemiluminescent Substrate (Thermo, IL, USA) using a Fusion Solo chemiluminescence analyzer (Vilber Rourmat Marne la Vallee, France). Antibodies to STAT3 (H-190), STAT3 (B-7) phosphorylated at Tyr705 and actin (C-2) were purchased from Santa Cruz Biotechnology. Rabbit monoclonal antibodies on AKT, AKT (D9E) phosphorylated at Ser473, FGFR1 phosphorylated at Tyr 653/654, p42/44 MAPK, phosphorylated p42/44 MAPK, p38 MAPK and p38 MAPK phosphorylated at Tyr 180/182 were purchased from Cell Signaling Technology (MA, USA). Further, HRP-conjugated goat anti-mouse and rabbit secondary antibodies were purchased from Jackson Laboratories, while BGJ398 used in the experiment (against FGFR1/2/3) was purchased from Selleckchem (USA).
Under this ground, in order to determine whether BGJ398 can vary the state of AKT and STAT3 in the sphere cultured SKOV3ip1 cells, the monolayer cultured (MC) or sphere cultured (SC) SKOV3ip1 cells were subjected to treatment using 5 μM BGJ398, followed by examining the degree of phosphorylation due to the above treatment.
Further, the sphere cultured SKOV3ip1 cells were treated with 5 μM BGJ398 (BGJ), 3 μM TAE648 (TAE) and 5 μM imatinib (IMT), respectively. After 72 hours, a cell lysate was obtained and subjected to immunostaining, followed by analyzing active cellular expression of AKT and STAT3 with the antibody for the same. Further, a phosphorylation level of FGFR1 was used as a positive control group relative to BGJ treatment groups while actin was used as a loading control group. The immunostaining assay procedure was implemented in the same manner as in Example 1.
Since the cell survival of the sphere cultured SKOV3ip1 cells is inhibited by BGJ398 treatment, whether such cell survival inhibition is intermediated through JAK/STAT3 signaling pathway was further examined. […]

[3] = tested on: monolayer cultured SKOV3ip1 ovarian cancer cells; assay: crystal violet cell viability, 2D monolayer culture; details: monolayer cultured SKOV3ip1, 72 hours, different concentrations, crystal violet colorimeter (FIG. 3)
Procedure: 2D monolayer culture was implemented in the following manner: cells were cultured at 37° C., 5% CO2 humidified atmosphere using RPMI 1640 medium (Corning, NY, USA) supplemented with 10% fetal bovine serum (Gibco, NY, USA) and 10 U/ml penicillin/streptomycin.
Crystal violet staining was implemented to determine the cell viability in the monolayer cultured cell model and sphere cultured cell model. In order to implement the crystal violet staining in the monolayer culture model, SKOV3ip1 cells (5×10^4) were dispensed in commercial 24-well plates and incubated overnight. Thereafter, the drug was dispensed with a desired concentration for experiment into each well, followed by further incubation for 72 hours. 300 μl of 0.2% crystal violet solution was added to each well, followed by further incubation for 20 minutes while gently stirring the same. The stained cells were washed with distilled water until a clean background is observed. For assessment using a colorimeter, the crystal violet dye was extracted with 1% SDS/PBS and absorbance was measured at 570 nm wavelength by EMax PLUS microplate reader (Molecular Device, USA).
as §2

[4] = tested on: SKOV3-TR ovarian cancer cells; assay: crystal violet cell viability in paclitaxel-resistant cells
Procedure: SKOV3-TR cell line was offered from Sood AK in MD-Anderson Cancer Center (USA) and then used in the present experiments.
Paclitaxel resistance of each of SKOV3 and SKOV3-TR was determined by measuring the cell viability through crystal violet colorimetric assay. This experiment was implemented three times and a difference in results thereof was estimated by student's t-test.
(§3) According to the same procedures as described in the previous examples, each cell line was divided and cultured by 2D monolayer culture and 3D sphere culture, respectively. Then, a change due to administration of BGJ398 alone or in combination with paclitaxel was analyzed through morphological analysis and crystal violet staining assay.

[5] = tested on: SKOV3-TR ovarian cancer cells; assay: microscopic analysis of cell shape change due to cytotoxicity; details: single agent: 2.5 μM BGJ398 or 50 nM paclitaxel (FIG. 20)
Procedure: as §3
FIG. 20 illustrates a change in cell shape due to cytotoxicity under microscopic analysis, when paclitaxel alone, BGJ398 alone or in combination with paclitaxel was administered to SKOV3-TR ovarian cancer cells.

[6] = tested on: sphere cultured SKOV3ip1 cells; assay: microscopic observation of aggregated (spheroid) form; details: 5 μM BGJ398, 3 μM TAE648, 5 μM imatinib (FIG. 5)
Procedure: as §1

SKOV3-TR = assay: crystal violet staining assay, cisplatin and BGJ398, 2D culture; details: 2D culture, cisplatin alone (FIG. 29)
Procedure: (§4) According to the same procedures as described in the previous examples, each cell line was subjected to 2D culture and a change thereof upon administration of cisplatin alone, BGJ398 alone or in combination with cisplatin was analyzed through crystal violet staining assay.

SKOV3ip1 = assay: as above; details: SKOV3ip1, 2D culture, cisplatin alone (FIG. 29)
Procedure: as §4

SMILES | cell viability [3] | cell viability [1] | aggregated (spheroid) form of cells [6] | phosphorylated AKT at Ser473 [2] | also measured
N#C/C(=C\c1ccc(O)c(O)c1)C(=O)NCc1ccccc1 [AG490, reference compound] |  |  |  |  | cell growth ([1]; sphere cultured SKOV3ip1, AG490 3.125 to 50 μM, 72 hours (FIG. 7A)): did not suppress cell growth; AKT and STAT3 phosphorylation ([2]; sphere cultured SKOV3ip1, 5 μM BGJ398 (FIG. 6), AG490, 72 hours (FIG. 7B)): not inhibited
CC(=O)O[C@H]1C(=O)[C@@]2(C)[C@H]([C@H](OC(=O)c3ccccc3)[C@]3(O)C[C@H](OC(=O)[C@H](O)[C@@H](NC(=O)c4ccccc4)c4ccccc4)C(C)=C1C3(C)C)[C@]1(OC(C)=O)CO[C@@H]1C[C@@H]2O [paclitaxel, reference compound] | reduced by paclitaxel and TAE648 in a dose-dependent manner | more obviously resistant to paclitaxel than the monolayer cultured SKOV3ip1 cells |  |  | paclitaxel resistance ([4]; SKOV3-TR compared with SKOV3, crystal violet colorimetric assay (FIG. 15)): significantly higher than SKOV cell line; anticancer activity ([4]; paclitaxel alone (FIGS. 18, 19)): negligible; cytotoxicity and morphological change [5]: negligible cytotoxicity and no morphological change
Cc1ccc(NC(=O)c2ccc(CN3CCN(C)CC3)cc2)cc1Nc1nccc(-c2cccnc2)n1 [imatinib] | not effected | did not affect the cell viability | spheroid degradation was not observed | did not show such effects | 
N.N.[Cl][Pt][Cl] [cisplatin, reference compound] |  |  |  |  | sensitivity to cisplatin (SKOV3-TR): exhibit sensitivity to cisplatin; sensitivity to cisplatin (SKOV3ip1): exhibit sensitivity to cisplatin
COc1cc(N2CCC(N3CCN(C)CC3)CC2)ccc1Nc1ncc(Cl)c(Nc2ccccc2S(=O)(=O)C(C)C)n1 [TAE684] | reduced by paclitaxel and TAE648 in a dose-dependent manner | TAE648 resistance was not identified | spheroid degradation was not observed | did not show such effects | 
